Experimental data published in patent US9302999B2, “Substituted triazoles as herbicides” (E. I. DU PONT DE NEMOURS AND COMPANY, priority 2012, dated 2016).
Read-outs that look alike come from different tables or passages of the source.

Assays:
Assay type in all cases: in vivo
[1] = tested on: crabgrass, large (large crabgrass, Digitaria sanguinalis); experiment: Test A pre-/postemergence: crabgrass, large; settings: for pest or weed control at 125 g/ha / pest or weed control at 500 g/ha: Digitaria sanguinalis, 240 h
Procedure, shortened: (§1)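 Soil medium was loam blended with sand; treatments pre- and postemergence were applied concurrently, postemergence at one- to two-leaf stage. Approximately ten days in greenhouse preceded visual comparison with untreated controls, scored 0 (no effect) to 100 (complete control).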

[2] = tested on: foxtail, giant (giant foxtail, Setaria faberii); experiment: Test A pre-/postemergence: foxtail, giant; settings: for pest or weed control at 125 g/ha / pest or weed control at 500 g/ha: Setaria faberi, 240 h
Procedure, shortened: as §1

[3] = tested on: pigweed (Amaranthus retroflexus); experiment: Test A pre-/postemergence: pigweed; settings: for pest or weed control at 125 g/ha / pest or weed control at 500 g/ha: Amaranthus retroflexus, 240 h
Procedure, shortened: as §1

[4] = tested on: velvetleaf (Abutilon theophrasti); experiment: Test A pre-/postemergence: velvetleaf; settings: for pest or weed control at 125 g/ha / pest or weed control at 500 g/ha: Abutilon theophrasti, 240 h
Procedure, shortened: as §1

[5] = tested on: wheat (Triticum aestivum); experiment: Test A pre-/postemergence: wheat; settings: for plant injury at 125 g/ha / plant injury at 500 g/ha: Triticum aestivum, 240 h
Procedure, shortened: as §1

[6] = tested on: barnyardgrass (Echinochloa crus-galli); experiment: Test B flooded paddy: barnyardgrass; settings: Flood, applied to paddy water at 2-leaf stage, visually evaluated after 13 to 15 days
Procedure, shortened: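 Response scored visually, 0–100 relative to controls, 13–15 days after the compound was applied into paddy water; plants were at the 2-leaf stage in pots kept flooded to 3 cm.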

[7] = tested on: blackgrass (Alopecurus myosuroides); experiment: Test C pre-/postemergence: blackgrass; settings: Preemergence
Procedure, shortened: (§2)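 Preemergence on seeds in loam/sand, postemergence on 2–18 cm (1–4-leaf) plants in peat-based medium; compounds in non-phytotoxic solvent with surfactant. After 13–15 days in greenhouse, visual rating versus controls, 0 (no effect) to 100 (complete control).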

[8] = tested on: morningglory (Ipomoea coccinea); experiment: Test C pre-/postemergence: morningglory; settings: Preemergence
Procedure, shortened: as §2

[9] = tested on: ragweed (common ragweed, Ambrosia elation); experiment: Test C pre-/postemergence: ragweed; settings: Preemergence
Procedure, shortened: as §2

[10] = Postemergence, 125 g ai/ha, 0 to 100 scale, 0 is no effect, 100 is complete control
[11] = Postemergence, 500 g ai/ha, visual rating on 0 to 100 scale (0 no effect, 100 complete control), approximately ten days
[12] = Preemergence, 125 g ai/ha, 0 to 100 scale where 0 is no effect and 100 is complete control
[13] = Preemergence, 500 g ai/ha, 0 to 100 scale (0 no effect, 100 complete control)
[14] = 31 g ai/ha, scale of 0 to 100, 0 is no effect, 100 is complete control
[15] = 62 g ai/ha, scale of 0 to 100, 0 is no effect, 100 is complete control
[16] = 125 g ai/ha, scale 0 to 100, 0 no effect, 100 complete control
[17] = 250 g ai/ha, scale 0 to 100, 0 no effect, 100 complete control
[18] = Postemergence, 500 g ai/ha, 0 to 100 scale, 0 is no effect, 100 is complete control

Work on `Cc1nn(-c2ccc(F)cc2F)nc1Cc1ccnc(C(F)(F)F)c1` [Compound 54, 4-[[2-(2,4-difluorophenyl)-5-methyl-2H-1,2,3-triazol-4-yl]methyl]-2-(trifluoromethyl)pyridine] yielded a pest or weed control at 125 g/ha ([1]; post-emergence, Postemergence, 125 g ai/ha, 0 to 100 scale, 0 is no effect, 100 is complete control, read-out: Crabgrass, Large plant response rating) of 80%, a pest or weed control at 500 g/ha ([1]; post-emergence, Postemergence, 500 g ai/ha, visual rating on 0 to 100 scale (0 no effect, 100 complete control), approximately ten days, read-out: Crabgrass, Large plant response rating) of 90% and a pest or weed control at 125 g/ha ([1]; pre-emergence, Preemergence, 125 g ai/ha, 0 to 100 scale (0 no effect, 100 complete control), read-out: Plant response rating, Crabgrass, Large) of 100%. It also gave a pest or weed control at 500 g/ha ([1]; pre-emergence, Preemergence, 500 g ai/ha, 0 to 100 scale, 0 is no effect, 100 is complete control, read-out: Plant response rating, Crabgrass, Large) of 100%, a pest or weed control at 125 g/ha ([2]; post-emergence, Postemergence, 125 g ai/ha, 0 to 100 scale, 0 is no effect, 100 is complete control, read-out: Foxtail, Giant plant response rating) of 80% and a pest or weed control at 500 g/ha ([2]; post-emergence, Postemergence, 500 g ai/ha, visual rating on 0 to 100 scale (0 no effect, 100 complete control), approximately ten days, read-out: Foxtail, Giant plant response rating) of 90%. It also gave a pest or weed control at 125 g/ha ([2]; pre-emergence, Preemergence, 125 g ai/ha, 0 to 100 scale (0 no effect, 100 complete control), read-out: Plant response rating, Foxtail, Giant) of 100%, a pest or weed control at 500 g/ha ([2]; pre-emergence, Preemergence, 500 g ai/ha, 0 to 100 scale, 0 is no effect, 100 is complete control, read-out: Plant response rating, Foxtail, Giant) of 100% and a pest or weed control at 125 g/ha ([3]; post-emergence, Postemergence, 125 g ai/ha, 0 to 100 scale, 0 is no effect, 100 is complete control, read-out: Pigweed plant response rating) of 100%. It also gave a pest or weed control at 500 g/ha ([3]; post-emergence, Postemergence, 500 g ai/ha, visual rating on 0 to 100 scale (0 no effect, 100 complete control), approximately ten days, read-out: Pigweed plant response rating) of 100%, a pest or weed control at 125 g/ha ([3]; pre-emergence, Preemergence, 125 g ai/ha, 0 to 100 scale (0 no effect, 100 complete control), read-out: Plant response rating, Pigweed) of 100% and a pest or weed control at 500 g/ha ([3]; pre-emergence, Preemergence, 500 g ai/ha, 0 to 100 scale, 0 is no effect, 100 is complete control, read-out: Plant response rating, Pigweed) of 100%. The pest or weed control at 125 g/ha ([4]; post-emergence, Postemergence, 125 g ai/ha, 0 to 100 scale, 0 is no effect, 100 is complete control, read-out: Velvetleaf plant response rating) was 90%, the pest or weed control at 500 g/ha ([4]; post-emergence, Postemergence, 500 g ai/ha, visual rating on 0 to 100 scale (0 no effect, 100 complete control), approximately ten days, read-out: Velvetleaf plant response rating) was 100% and the pest or weed control at 125 g/ha ([4]; pre-emergence, Preemergence, 125 g ai/ha, 0 to 100 scale (0 no effect, 100 complete control), read-out: Plant response rating, Velvetleaf) was 30%. The pest or weed control at 500 g/ha ([4]; pre-emergence, Preemergence, 500 g ai/ha, 0 to 100 scale, 0 is no effect, 100 is complete control, read-out: Plant response rating, Velvetleaf) was 60%, the plant injury at 125 g/ha ([5]; post-emergence, Postemergence, 125 g ai/ha, 0 to 100 scale, 0 is no effect, 100 is complete control, read-out: Wheat plant response rating) was 20% and the plant injury at 500 g/ha ([5]; post-emergence, Postemergence, 500 g ai/ha, visual rating on 0 to 100 scale (0 no effect, 100 complete control), approximately ten days, read-out: Wheat plant response rating) was 30%. For the same compound, the plant injury at 125 g/ha ([5]; pre-emergence, Preemergence, 125 g ai/ha, 0 to 100 scale (0 no effect, 100 complete control), read-out: Plant response rating, Wheat) was 10%, the plant injury at 500 g/ha ([5]; pre-emergence, Preemergence, 500 g ai/ha, 0 to 100 scale, 0 is no effect, 100 is complete control, read-out: Plant response rating, Wheat) was 30% and the “Plant response rating, Barnyardgrass (0 to 100 scale, 0 is no effect, 100 is complete control)” value ([6]; 250 g ai/ha) was 30.
In the case of `Cc1nn(-c2ccc(F)cc2F)nc1Oc1ccnc(C(F)(F)F)c1` [Compound 146], the “Crabgrass, Large plant response rating” value [1, 10] is reported as 80, the “Crabgrass, Large plant response rating” value [1, 11] is reported as 90 and the “Plant response rating, Crabgrass, Large” value [1, 12] is reported as 100. For the same compound, the “Plant response rating, Crabgrass, Large” value [1, 13] was 100, the “Foxtail, Giant plant response rating” value [2, 10] was 80 and the “Foxtail, Giant plant response rating” value [2, 11] was 90. For the same compound, the “Plant response rating, Foxtail, Giant” value [2, 12] was 100, the “Plant response rating, Foxtail, Giant” value [2, 13] was 100 and the “Plant response rating, Pigweed” value [3, 10] was 100. For the same compound, the “Pigweed plant response rating” value [3, 11] was 100, the “Plant response rating, Pigweed” value [3, 12] was 100 and the “Plant response rating, Pigweed” value [3, 13] was 100. The “Plant response rating, Velvetleaf” value [4, 10] was 70, the “Velvetleaf plant response rating” value [4, 11] was 100 and the “Plant response rating, Velvetleaf” value [4, 12] was 10. The “Plant response rating, Velvetleaf” value [4, 13] was 50, the “Plant response rating, Wheat” value [5, 10] was 10 and the “Wheat plant response rating” value [5, 11] was 30. The “Plant response rating, Wheat” value [5, 12] was 0, the “Plant response rating, Wheat” value [5, 13] was 30 and the “Plant response rating, Barnyardgrass (0 to 100 scale, 0 is no effect, 100 is complete control)” value ([6]; 250 g ai/ha) was 50. For the same compound, the “Plant response rating, Blackgrass” value [7, 14] was 50, the “Plant response rating, Blackgrass” value [7, 15] was 70 and the “Plant response rating, Blackgrass” value [7, 16] was 90. For the same compound, the “Plant response rating, Blackgrass” value [7, 17] was 90, the “Plant response rating, Morningglory” value [8, 14] was 35 and the “Plant response rating, Morningglory” value [8, 15] was 40. The “Plant response rating, Morningglory” value [8, 16] was 45, the “Plant response rating, Morningglory” value [8, 17] was 90 and the “Plant response rating, Ragweed” value [9, 14] was 0. The “Plant response rating, Ragweed” value [9, 15] was 0, the “Plant response rating, Ragweed” value [9, 16] was 45 and the “Plant response rating, Ragweed” value [9, 17] was 45.
For `CCOCc1nn(-c2ccc(F)cc2)nc1Oc1ccnc(C(F)(F)F)c1` [Compound 163], the “Plant response rating, Crabgrass, Large” value [1, 10] was 70, the “Crabgrass, Large plant response rating” value [1, 18] was 100 and the “Plant response rating, Crabgrass, Large” value [1, 12] was 100. For the same compound, the “Plant response rating, Crabgrass, Large” value [1, 13] was 100, the “Plant response rating, Foxtail, Giant” value [2, 10] was 60 and the “Foxtail, Giant plant response rating” value [2, 18] was 90. For the same compound, the “Plant response rating, Foxtail, Giant” value [2, 12] was 100, the “Plant response rating, Foxtail, Giant” value [2, 13] was 100 and the “Plant response rating, Pigweed” value [3, 10] was 100. For the same compound, the “Pigweed plant response rating” value [3, 18] was 100, the “Plant response rating, Pigweed” value [3, 12] was 100 and the “Plant response rating, Pigweed” value [3, 13] was 100. The “Plant response rating, Velvetleaf” value [4, 10] was 40, the “Velvetleaf plant response rating” value [4, 18] was 100 and the “Plant response rating, Velvetleaf” value [4, 12] was 0. For the same compound, the “Plant response rating, Velvetleaf” value [4, 13] was 20, the “Plant response rating, Wheat” value [5, 10] was 20 and the “Wheat plant response rating” value [5, 18] was 40. The “Plant response rating, Wheat” value [5, 12] was 0, the “Plant response rating, Wheat” value [5, 13] was 0 and the “Plant response rating, Barnyardgrass (0 to 100 scale, 0 is no effect, 100 is complete control)” value ([6]; 125 g ai/ha) was 15. For the same compound, the “Plant response rating, Blackgrass” value [7, 14] was 5, the “Plant response rating, Blackgrass” value [7, 15] was 85 and the “Plant response rating, Blackgrass” value [7, 16] was 90. For the same compound, the “Plant response rating, Blackgrass” value [7, 17] was 95, the “Plant response rating, Morningglory” value [8, 14] was 20 and the “Plant response rating, Morningglory” value [8, 15] was 25. The “Plant response rating, Morningglory” value [8, 16] was 30, the “Plant response rating, Morningglory” value [8, 17] was 75 and the “Plant response rating, Ragweed” value [9, 14] was 0. The “Plant response rating, Ragweed” value [9, 15] was 10, the “Plant response rating, Ragweed” value [9, 16] was 20 and the “Plant response rating, Ragweed” value [9, 17] was 35.
